Measurements published in patent US20220280590A1, “USE OF INHIBITORS OF YAP AND SOX2 FOR THE TREATMENT OF CANCER” (Georgetown University, priority 2019, published 2022).

How the values were obtained:
[1] = system: SOX2, SOX5, and TWIST2 in primary PDAC cell lines; experiment: Western blot of pluripotent transcription factors in primary PDAC lines; assay type: cell-based; settings: after 24 hours, compared to DMSO control
Method: Western blot assay with indicated antibodies in four different primary PDAC lines expressing variable levels of SOX2/SOX5/TWIST2 after 24 hr treatment with DMSO (−) or Miv (+) is shown. Multiple primary PDAC cell lines were treated with BET inhibitor mivebresib.

[2] = system: mT4, 08031-9, MD-MB-231, 786-O and HepG2 cells; experiment: FACS analysis of relative ratios of control (RFP-) and YAP/TAZ-depleted (shY/T, RFP+) cancer cells in co-culture; assay type: cell-based; settings: compared to vehicle, pancreatic, schwannoma, breast, kidney and liver cancer lines
Method: FACS analysis of the relative ratios of control (Ctrl, RFP-) or YAP/TAZ-depleted (shY/T, RFP^+) cancer cells after co-culturing in the presence of vehicle (Veh) or BE inhibitor mivebresib (Miv) was performed (n=3). […] The YAP/TAZ hairpin RNAs were fused with fluorescent protein RFP. […] (FIG. 8).

[3] = system: primary KYYF pancreatic tumor cells; experiment: Relative mRNA levels of lineage genes and SOX2 in KYYF pancreatic tumor cells; assay type: cell-based, mouse; settings: YAP+ primary pancreatic tumor cells, 0.5, 2, 5 μM for 3 days versus DMSO
Description: (§1) (*P<0.05; **P<0.005; ***P<0.0005; ns: not significant; error bars indicate standard deviation).
(§2) Quantitative methylation-specific PCR (qMSP) was used to confirm that the promoters of acinar lineage genes Ptf1a and Bhlha15 became heavily methylated in KF pancreatic tumors in contrast to wild type (WT) pancreata, which was partially reversed in KYYF pancreata after TAM treatment (FIG. 5L). To directly assess the effects of DNA de-methylation on the expression of pancreatic lineage genes, YAP^+ primary pancreatic tumor cells were treated with vehicle control or DNA methylation inhibitor 5-azacytidine (5-Aza). […] The levels of global DNA methylation in primary KYYF pancreatic tumor cells were measured following treatment with Ad-GFP or Ad-CRE, and it was confirmed that YAP ablation induced a rapid and significant decline in global DNA methylation, which partially recovered over time (FIG. 5B).

[4] = system: primary KYYF pancreatic tumor cells; experiment: Percent of global DNA methylation in KYYF cells; assay type: cell-based, mouse; settings: 5 μM, 3 days versus DMSO
Description: as §1, §2

| Structure (SMILES) | expression of pluripotent transcription factors SOX2, SOX5, and TWIST2 [1] | percentage of control (RFP-) relative to shY/T (RFP+) cancer cells [2] | expression of acinar and endocrine lineage genes and SOX2 [3] | global DNA methylation [4] |
| --- | --- | --- | --- | --- |
| CCS(=O)(=O)Nc1ccc(Oc2ccc(F)cc2F)c(-c2cn(C)c(=O)c3[nH]ccc23)c1 [mivebresib] | selectively reduced | greater percentage of control (RFP^−) cancer cells relative to shY/T (RFP^+) cancer cells | – | – |
| Nc1ncn([C@@H]2O[C@H](CO)[C@@H](O)[C@H]2O)c(=O)n1 [5-Aza, 5-azacytidine] | – | – | dose-dependent upregulation | global DNA de-methylation |
